According to paper PMC7380166, “How to Study the Metabolism of New Psychoactive Substances for the Purpose of Toxicological Screenings—A Follow-Up Study Comparing Pooled Human Liver S9, HepaRG Cells, and Zebrafish Larvae” (Frontiers in Chemistry, 2020):

Tests used:
hCES1c = target: T1, hCES1c (Homo sapiens, UniProt P23141); assay: Esterases activity screening, hCES1c; type: in vitro ADME; design: key: +, detected; –: −, not detected; details: 100 μM 4F-MDMB-BINACA, 0.2 mg protein/ml, duplicate
T1 construct: purchased Corning
T1 sequence (P23141 18-566 isoform P23141-3 limits assumed): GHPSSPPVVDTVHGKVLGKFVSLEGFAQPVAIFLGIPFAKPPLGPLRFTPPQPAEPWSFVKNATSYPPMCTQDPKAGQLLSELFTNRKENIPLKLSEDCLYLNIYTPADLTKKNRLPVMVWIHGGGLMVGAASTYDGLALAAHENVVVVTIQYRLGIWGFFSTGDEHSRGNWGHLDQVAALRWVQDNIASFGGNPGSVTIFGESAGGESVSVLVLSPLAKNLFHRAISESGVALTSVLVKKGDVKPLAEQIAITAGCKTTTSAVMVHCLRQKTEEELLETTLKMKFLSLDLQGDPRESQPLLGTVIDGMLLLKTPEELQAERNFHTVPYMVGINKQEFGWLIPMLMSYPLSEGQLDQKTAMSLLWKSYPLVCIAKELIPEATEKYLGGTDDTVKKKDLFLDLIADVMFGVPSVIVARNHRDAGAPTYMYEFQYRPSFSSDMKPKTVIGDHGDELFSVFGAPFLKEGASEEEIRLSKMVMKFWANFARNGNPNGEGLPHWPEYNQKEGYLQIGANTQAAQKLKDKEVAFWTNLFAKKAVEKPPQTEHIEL
Description: (§1) Experiments were performed in accordance with a previous study (Meyer et al., [2015]) with minor modifications. The final volume per reaction tube was 100 μl with a final 4F-MDMB-BINACA concentration of 100 μM and enzyme concentration of 0.2 mg protein/ml for hCES1b, hCES1c, and hCES2. Incubations with pHLM and pHLS9 (0.2 mg protein/ml, each) were performed in a similar manner. Additionally, incubations with human plasma (50 μl pooled human plasma, 40 μl phosphate buffer, and 10 μl substrate) were performed. The reactions were started by adding the enzyme-containing preparation and terminated with an equal volume of ice-cold acetonitrile containing diazepam-d5 (100 μM) as an internal standard. Only plasma incubations were terminated by addition of a three-fold volume of ice-cold acetonitrile. The reaction mixtures were centrifuged at 18,407 × g for 15 min, and then supernatants were transferred to autosampler vials, and 5 μl was injected onto the LC-HRMS/MS system. Negative control incubations without enzyme were prepared to identify non-metabolically formed compounds. All incubations were done in duplicate.

hCES2 = target: T2, hCES2 (Homo sapiens, UniProt O00748); assay: Esterases activity screening, hCES2; type: in vitro ADME; design: key: +, detected; –, not detected; details: 100 μM 4F-MDMB-BINACA, 0.2 mg protein/ml, duplicate
T2 construct: purchased Corning
T2 sequence (O00748 27-559): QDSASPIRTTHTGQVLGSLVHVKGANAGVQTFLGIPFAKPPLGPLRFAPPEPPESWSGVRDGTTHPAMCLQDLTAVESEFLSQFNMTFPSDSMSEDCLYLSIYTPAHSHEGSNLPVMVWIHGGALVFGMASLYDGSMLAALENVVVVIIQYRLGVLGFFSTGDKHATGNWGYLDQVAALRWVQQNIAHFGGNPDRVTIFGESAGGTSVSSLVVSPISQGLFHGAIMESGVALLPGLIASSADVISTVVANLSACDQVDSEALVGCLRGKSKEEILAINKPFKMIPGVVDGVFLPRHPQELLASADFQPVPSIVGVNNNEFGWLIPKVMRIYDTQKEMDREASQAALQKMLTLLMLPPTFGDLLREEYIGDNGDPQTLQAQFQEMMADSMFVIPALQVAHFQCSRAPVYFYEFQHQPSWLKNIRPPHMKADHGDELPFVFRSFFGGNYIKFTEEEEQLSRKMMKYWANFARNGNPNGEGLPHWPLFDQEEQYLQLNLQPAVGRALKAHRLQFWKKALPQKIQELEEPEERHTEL
Description: as §1

[1] = Esterases activity screening, pHLM; type: in vitro ADME, human; design: key: +, detected; –: −, not detected; details: 100 μM 4F-MDMB-BINACA, 0.2 mg protein/ml, duplicate
Description: as §1

[2] = Esterases activity screening, pHLS9; type: in vitro ADME, human; design: key: +, detected; –: −, not detected; details: 100 μM 4F-MDMB-BINACA, 0.2 mg protein/ml, duplicate
Description: as §1

[3] = Esterases activity screening, pooled human blood plasma; type: in vitro ADME; design: key: +, detected; –, not detected; details: 100 μM 4F-MDMB-BINACA, duplicate
Description: as §1

zebrafish larvae = assay: In vivo maximum-tolerated concentration (MTC) study in zebrafish larvae; design: species or system zebrafish (Danio rerio); details: for Survival rate: 24-h treatment, fifteen larvae
Description: Internal protocols based on published standard methods (Westerfield, [2007]) were used to perform zebrafish husbandry and the maximum-tolerated concentration (MTC) testing was based on a previous study (Richter et al., [2019a]). Danieau's medium [17 mM NaCl, 2 mM KCl, 0.12 mM MgSO4, 1.8 mM Ca(NO3)2, 1.5 mM HEPES, pH 7.1–7.3, and 1.2 μM methylene blue] at 28°C was used to raise zebrafish larvae of the AB wild-type strain. For MTC testing, 96-well plates were used with 100 μl of medium and one larva per well. Drug exposition was started 4 dpf using 0, 0.01, 0.1, 1, 10, 50, or 100 μM final concentrations of 3,4-DMA-NBOMe, ephylone, 4F-MDMB-BINACA, 4F-PHP, or 1P-LSD, respectively. The drug exposure in the incubator at 28°C lasted 24 h. The final DMSO concentration was 1% (v/v) for all experiments. Monitoring of the larvae was done using a LEICA M205 FA stereo microscope (Leica Mikrosysteme Vertrieb GmbH, Wetzlar, Germany) to detect developmental defects and/or decreased survival rates. Fifteen larvae were used for each experiment.

CC(C)(C)C(NC(=O)c1nn(CCCCF)c2ccccc12)C(=O)O (stereo not drawn) [MB8]
Detection of metabolite in incubation with hCES1c (hCES1c): +
Detection of metabolite in incubation with hCES2 (hCES2): –
Detection of metabolite in incubation with pHLM [1]: +
Detection of metabolite in incubation with pHLS9 [2]: +
Detection of metabolite in incubation with pHBP [3]: –

COC(=O)C(NC(=O)c1nn(CCCCF)c2ccccc12)C(C)(C)C (stereo not drawn) [4F-MDMB-BINACA, methyl 2-[1-(4-fluorobutyl)-1H-indazole-3-carbonyl]amino-3,3-dimethylbutanoate]
Survival rate (zebrafish larvae; 0.01 μM, larvae 4 dpf): 100%
Survival rate (zebrafish larvae; 0.1 μM, larvae 4 dpf): 100%
Survival rate (zebrafish larvae; 1 μM, larvae 4 dpf): 100%
Survival rate (zebrafish larvae; 10 μM, larvae 4 dpf): 100%
Survival rate (zebrafish larvae; 50 μM, larvae 4 dpf): 73%
Survival rate (zebrafish larvae; 100 μM, larvae 4 dpf): 53%
Concentration considered non-toxic for zebrafish larvae (4 dpf) (zebrafish larvae; 24 h exposure via medium): 25 µM
Malformations (zebrafish larvae; up to 100 μM, larvae 4 dpf, 24 h): No malformations

O=C(O)c1nn(CCCCF)c2ccccc12 [MB1]
Detection of metabolite in incubation with hCES1c (hCES1c): +
Detection of metabolite in incubation with hCES2 (hCES2): –
Detection of metabolite in incubation with pHLM [1]: +
Detection of metabolite in incubation with pHLS9 [2]: +
Detection of metabolite in incubation with pHBP [3]: –
